# Measured values as given in US12310946B2, “Pharmaceutical composition for oral administration of edaravone and method of administering same” (MITSUBISHI TANABE PHARMA CORPORATION, priority 2020, dated 2025).
# Where two headings read alike, the source gives them in different places.
# Assays:
# [1] = Clinical study #1: PK of edaravone oral formulation (formula #1), fasted vs 30 min after high-fat meal; assay type: in vivo; conditions: male, human, plasma, 200 mg, 200 mg oral
# Procedure: Effects of meal consumption before administration of the edaravone oral formulation on the pharmacokinetics of edaravone were evaluated. Specifically, clinical studies #1, #2, and #3 described below were conducted on separate days in Japanese healthy adult male subjects. In each of clinical studies #1, #2, and #3, one dose each of edaravone oral formulations (edaravone suspensions) of formulas #1, #2, and #3 shown in Table 1 below were used respectively and administered orally once during the study period. For each clinical study, a reference study was conducted (reference example), in which the edaravone oral formulation was administered in fasted conditions as described below, and in each clinical study and the corresponding reference study, the edaravone oral formulation was each administered to the same subjects.
# For the high-fat meal, a meal with total calories per meal of 800 to 1000 kilocalories and calorie intake from lipid of 50% was used. For the standard meal, a meal with total calories per meal of 400 to 500 kilocalories and calorie intake from lipid of 25% was used. For the light meal, a liquid-type nutritional supplement with total calories per meal of 250 kilocalories (enteral nutritional supplement: Ensure Liquid (trade name)) was used.
# The edaravone oral formulation (formula #1) was administered orally to the subjects 30 minutes after high-fat meal consumption. Blood samples were each collected before the administration, and 15 minutes, 30 minutes, 1 hour, 1.5 hours, 2 hours, 4 hours, 6 hours, 8 hours, 12 hours, 24 hours, 36 hours, and 48 hours after the administration, and the concentrations of unchanged edaravone in plasma were measured. On the other hand, as a reference example, the edaravone oral formulation was administered orally to the same subjects in fasted conditions, blood samples were collected, and the concentrations of unchanged edaravone in plasma were measured in the same manner. For the administration in fasted conditions, the edaravone oral formulation was administered orally after a lapse of 10 hours or more from the previous meal consumption (the same applies hereinafter). None of the subjects consumed a next meal until the blood sample collection 4 hours after the administration was completed.
# [2] = Clinical study #6: PK of edaravone oral formulation (formula #3) via PEG tube in ALS patients; assay type: in vivo, human; conditions: for Cmax: 105 mg
# Procedure: Pharmacokinetics of edaravone in administration of the edaravone oral formulation via a PEG tube was evaluated. Specifically, a clinical study #6 described below was conducted in ALS patients with a percutaneous endoscopic gastrostomy tube (PEG tube) (the patient group).
# The edaravone oral formulation was administered via a PEG tube to the patient group in fasted conditions after a lapse of 10 hours or longer from consumption of a meal. That is, first, 100 mL of lukewarm water was injected through a PEG tube 1 hour before the administration of the edaravone oral formulation, and 10 mL of lukewarm water was injected through a PEG tube immediately before the administration. Then, the edaravone oral formulation was administered to the PEG tube, and further 10 mL of water was injected through the PEG tube three times to wash in the edaravone oral formulation. In the patient group, ALS patients who had been already administered with an edaravone intravenous infusion formulation were administered with the edaravone oral formulation via a PEG tube after a lapse of 48 hours or longer from the time of completion of the previous administration of the intravenous infusion formulation. Blood samples were each collected before the administration, and 15 minutes, 30 minutes, 1 hour, 2 hours, 4 hours, 8 hours, and 24 hours after the administration, and the concentrations of unchanged edaravone in plasma were measured. […] For the reference example, the results of the reference group in Example 4, in which the edaravone oral formulation of the same formula #3 was administered orally and blood samples were collected, were utilized.
# The resulting PK parameters were corrected for body weight of each subject in the patient group adjusted to 70 kg by a proportional calculation. In addition, the results of the PK parameters after correction of the patient group are shown in individual plots as #6 in FIG. 3. A comparison was made between the patient group administered via a PEG tube in Table 10 below and the reference group administered orally in Table 9 above. […] Thus, the difference in the Cmax and the difference in the AUC before weight correction between the patient group administered via a PEG tube and the reference group administered orally seen in Table 10 below are considered due to the difference in body weight between the patient group administered via a PEG tube and the reference group administered orally, and the difference in the Cmax and the difference in the AUC after weight correction between the patient group administered via a PEG tube and the reference group administered orally seen in FIG. 3 are each considered to be within the range of error.
# [3] = Clinical Trial #12: PK after oral administration of edaravone solution and suspension; conditions: male, human, in vivo, fasting (N = 6), mean; for AUC(0-t): read-out: AUC0-24 h
# Procedure: Whether or not there is an influence on pharmacokinetics by administering in forms of a solution and a suspension when administering edaravone orally was evaluated. Specifically, Clinical Trial #12 described below was conducted on healthy adult Japanese male subjects. Administration during the trial period was a single oral administration.
# Either an edaravone solution containing 60 mg of edaravone or an edaravone suspension containing 120 mg of edaravone was orally administered to subjects in a fasting state of 10 hours or longer since the last meal intake. The 60 mg or 120 mg of edaravone was dissolved or suspended in 50 mL or 10 mL of 0.1% polyvinyl alcohol solution, respectively. The edaravone solution or suspension of the respective content was administered to each of six subjects.
# [4] = Oxidation of edaravone depending on pH; assay type: physicochemical; conditions: dependence on pH
# [5] = formula #1, 30 min after high-fat meal, mean (n = 5)
# [6] = formula #1, fasted, mean (n = 6)
# [7] = after weight correction (70 kg)
# [8] = human, plasma, 105 mg via PEG tube, fasted, ALS patients, mean, before weight correction
smiles,measurement,setting,value
"CC1=NN(c2ccccc2)C(=O)C1 [Edaravone, 3-methyl-1-phenyl-2-pyrazolin-5-one]",AUC(0-inf),[1]; [5],2470 ng·h/mL
same,Cmax,[1]; [5],899 ng/mL
same,Tmax,[1]; [5],1.35 h
same,half-life,[1]; [5],5.23 h
same,AUC(0-inf),[1]; [6],6310 ng·h/mL
same,Cmax,[1]; [6],4930 ng/mL
same,Tmax,[1]; [6],0.42 h
same,half-life,[1]; [6],9.05 h
same,difference in the AUC between the patient group administered via a PEG tube and the reference group administered orally,[2]; [7],9.5%
same,difference in the Cmax between the patient group administered via a PEG tube and the reference group administered orally,[2]; [7],8.3%
same,difference in the AUC between the patient group administered via a PEG tube and the reference group administered orally,[2]; before weight correction,33%
same,difference in the Cmax between the patient group administered via a PEG tube and the reference group administered orally,[2]; before weight correction,30%
same,Cmax,"[2]; human, plasma, 105 mg via PEG tube, ALS patients, corrected to 70 kg, read-out: Cmax after weight correction, mean value±standard error",1580 ± 251 ng/mL
same,Cmax,"[2]; human, plasma, 105 mg via PEG tube, fasted, ALS patients, mean, before weight correction, read-out: Cmax",2160 ng/mL
same,AUC,"[2]; human, plasma, 105 mg via PEG tube, ALS patients, corrected to 70 kg, read-out: AUC after weight correction, mean value±standard error",1700 ± 228 ng·h/mL
same,AUC(0-inf),[2]; [8],2340 ng·h/mL
same,Tmax,[2]; [8],0.33 h
same,Cmax,"[3]; Cohort S1, 60 mg, Solution",755 ng/mL
same,AUC(0-t),"[3]; Cohort S1, 60 mg, Solution",816 ng·h/mL
same,Cmax,"[3]; Cohort S2, 120 mg, Suspension",1740 ng/mL
same,AUC(0-t),"[3]; Cohort S2, 120 mg, Suspension",2240 ng·h/mL
same,oxidation of edaravone,[4],accelerated at a pH of 2.5 or lower and at a pH of 6.0 or higher
